From US9642854B2, “Flavanoid compounds and process for preparation thereof” (Council of Scientific & Industrial Research, priority 2009, dated 2017)
Values after ≈ are worked out from the molar mass of the structure shown. Like-named read-outs stand apart in the source and are kept apart here.

Tests used:
H. pylori [1] = experiment: Anti H. pylori spectrum (MIC) by agar dilution method; format: cell-based, Helicobacter pylori; details: for MIC / MIC50: Helicobacter pylori; for MIC50: MIC against 50% of the strains of the panel, read-out: MIC50
Protocol: MIC was determined using agar dilution assay following the CLSI® guidelines. Six clinical isolates and four standard strains were used for this study. Five microlitre of freshly grown 3-day old culture (˜1×10^8 CFU/mL) was streaked in plates containing 2-fold serial dilution of the compounds ranging […], and incubated under microaerophilic condition at 37° C. After 72 h, the plates were inspected visually for absence of growth to assess the MIC values. The experiment was performed in duplicates. MIC50 is defined as the dose (μg/ml) required for killing 50% of the strains.
Plates contained two-fold serial dilutions of the compounds ranging from […]. Five microlitres of 3-day old freshly grown H. pylori culture (^˜10^8 CFU/mL) was inoculated onto drug-containing BHI agar plates supplemented with 7% FCS, 0.5% IsoVitalex and 0.0025% DENT®, which were then incubated for 3 days under microaerophilic condition at 37° C.

H. pylori [2] = experiment: Anti H. pylori screening by disc diffusion susceptibility assay; format: cell-based, Helicobacter pylori; details: for Inhibition zone diameter (score): 100 and 200 mg/disc (so in the source); for Inhibition zone diameter (score) / zone of inhibition at 100 µg/disc: 72 h; for zone of inhibition at 100 µg/disc: Helicobacter pylori, 100 and 200 μg/disc, majority of the strains, read-out: Activity class by inhibition zone diameter
Protocol: The discs were impregnated with […] of each of the compounds, dissolved either in ethanol or DMSO, and the zone of inhibition was measured after 72 h of growth under microaerophilic conditions at 37° C. Inhibition zone diameter ranging 10-20 mm was given a score of ^+, 20-30 mm as ^++ and that of >30 mm as ^+++, as obtained employing dose range of […]/disc. The detailed structural information of the molecules is provided under ‘Description of the Compounds’.
Methods and protocols for the determination of inhibition zone diameter are as stated under Experiment 1, and that of MIC values by microbroth dilution assay as in Experiment 3. ‘Nil’ means zone of inhibition below 10 mm.
The anti H. pylori activity of all 16 flavonoid molecules, 2 naturally isolated and 14 synthetic derivatives, was screened by disc diffusion sensitivity assay employing 2 clinical strains HP001 and HP002, and three standard strains ATCC® 700392, 43504 and 49503. A 0.5 mL inoculum (10^8 CFU/mL) for each bacterial strain tested was flooded on freshly prepared Brain Heart Infusion (BHI) agar plates supplemented with 7% FCS, 0.5% IsoVitalex and 0.0025% DENT® and the discs (5 mm diameter) containing different compounds or antibiotics (dissolved either in ethanol or DMSO) were placed on the agar surface. After incubation for 3 days in a microaerophilic atmosphere at 37° C., the diameter of the zone of inhibition was measured (Glupczynsky, 1996; McNulty et al., 2002).

[3] = 72 h, panel of 6 clinical isolates and 4 standard strains, read-out: MIC Range
[4] = clinical strain HP001, read-out: MIC
[5] = clinical strain HP002, read-out: MIC
[6] = clinical strain HP003, read-out: MIC
[7] = clinical strain HP004, read-out: MIC
[8] = clinical strain HP005, read-out: MIC
[9] = clinical strain HP006, read-out: MIC
[10] = standard strain 43504, read-out: MIC
[11] = standard strain 43629, read-out: MIC
[12] = standard strain 49503, read-out: MIC
[13] = standard strain 700392, read-out: MIC
[14] = panel of 6 clinical isolates and 4 standard strains

| SMILES | MIC (H. pylori [1]; [3]) [µg/mL] | MIC50 (H. pylori [1]) [µg/mL] | MIC (H. pylori [1]; [4]) [µg/mL] | MIC (H. pylori [1]; [5]) [µg/mL] | MIC (H. pylori [1]; [6]) [µg/mL] | MIC (H. pylori [1]; [7]) [µg/mL] | MIC (H. pylori [1]; [8]) [µg/mL] | MIC (H. pylori [1]; [9]) [µg/mL] | MIC (H. pylori [1]; [10]) [µg/mL] | MIC (H. pylori [1]; [11]) [µg/mL] | MIC (H. pylori [1]; [12]) [µg/mL] | MIC (H. pylori [1]; [13]) [µg/mL] | MIC50 (H. pylori [1]; 72 h) [µg/mL] | Inhibition zone diameter (score) (H. pylori [2]; ATCC standard strain 43504) | Inhibition zone diameter (score) (H. pylori [2]; ATCC standard strain 49503) | Inhibition zone diameter (score) (H. pylori [2]; ATCC standard strain 700392) | Inhibition zone diameter (score) (H. pylori [2]; clinical strain HP001) | Inhibition zone diameter (score) (H. pylori [2]; clinical strain HP002) | zone of inhibition at 100 µg/disc (H. pylori [2]) [mm] | other results |
| --- | --- | --- | --- | --- | --- | --- | --- | --- | --- | --- | --- | --- | --- | --- | --- | --- | --- | --- | --- | --- |
| O=c1cc(-c2ccccc2)oc2cc(OCCCCCCN3CCOCC3)cc(O)c12 [CHM-1, 5-Hydroxy-7-(6-morpholin-4-yl-hexyloxy)-2-phenyl-chromen-4-one] | 6.25 to 25 (≈ 14.8 to 59 µM) | 25 (≈ 59 µM) | 25 (≈ 59 µM) | 25 (≈ 59 µM) | < 12.5 | < 12.5 | < 12.5 | < 12.5 | 25 (≈ 59 µM) | 25 (≈ 59 µM) | 25 (≈ 59 µM) | 25 (≈ 59 µM) | ~25 (≈ 59 µM) | Nil (‘Nil’ means zone of inhibition below 10 mm) | + (Inhibition zone diameter ranging 10-20 mm was given a score of ^+) | + (Inhibition zone diameter ranging 10-20 mm was given a score of ^+) | + (Inhibition zone diameter ranging 10-20 mm was given a score of ^+) | + (Inhibition zone diameter ranging 10-20 mm was given a score of ^+) |  |  |
| O=c1cc(-c2ccccc2)oc2cc(OCCCCN3CCOCC3)cc(O)c12 [CHM-3, 5-Hydroxy-7-(4-morpholin-4-yl-butoxy)-2-phenyl-chromen-4-one] | 50 to 100 (≈ 126 to 253 µM) | 50 (≈ 126 µM) | 50 (≈ 126 µM) | 50 (≈ 126 µM) | 100 (≈ 253 µM) | 100 (≈ 253 µM) | 100 (≈ 253 µM) | 100 (≈ 253 µM) | 50 (≈ 126 µM) | 100 (≈ 253 µM) | 50 (≈ 126 µM) | 50 (≈ 126 µM) | 50 (≈ 126 µM) | + (Inhibition zone diameter ranging 10-20 mm was given a score of ^+) | ++ (20-30 mm as ^++) | + (Inhibition zone diameter ranging 10-20 mm was given a score of ^+) | ++ (20-30 mm as ^++) | ++ (20-30 mm as ^++) | 20 to 30 | MIC Range (H. pylori [1]; [14]): 50 to 100 µg/mL |
| CN(C)CCCCOc1cc(O)c2c(=O)cc(-c3ccccc3)oc2c1 [CHN-3, 7-(4-Dimethylamino-butoxy)-5-hydroxy-2-phenyl-chromen-4-one] | 6.25 to 25 (≈ 17.7 to 70.7 µM) | 25 (≈ 70.7 µM) | 25 (≈ 70.7 µM) | 25 (≈ 70.7 µM) | < 12.5 | < 12.5 | < 12.5 | < 12.5 | 25 (≈ 70.7 µM) | 25 (≈ 70.7 µM) | 25 (≈ 70.7 µM) | 25 (≈ 70.7 µM) | ~25 (≈ 70.7 µM) | + (Inhibition zone diameter ranging 10-20 mm was given a score of ^+) | ++ (20-30 mm as ^++) | + (Inhibition zone diameter ranging 10-20 mm was given a score of ^+) | ++ (20-30 mm as ^++) | ++ (20-30 mm as ^++) | 20 to 30 |  |
| Cc1ncc([N+](=O)[O-])n1CCO [Metronidazole, reference compound] |  | 50 (≈ 292 µM) |  | > 100 | 100 (≈ 584 µM) | 100 (≈ 584 µM) | 25 (≈ 146 µM) | 25 (≈ 146 µM) | 50 (≈ 292 µM) | 1.56 (≈ 9.11 µM) | 1.56 (≈ 9.11 µM) | 1.56 (≈ 9.11 µM) |  |  |  |  |  |  |  |  |
| CN1CCN(CCCCOc2cc(O)c3c(=O)cc(-c4ccccc4)oc3c2)CC1 [NMC-3, 5-Hydroxy-7-[4-(4-methyl-piperazin-1-yl)-butoxy]-2-phenyl-chromen-4-one] | 6.25 to 25 (≈ 15.3 to 61.2 µM) | 25 (≈ 61.2 µM) | 25 (≈ 61.2 µM) | 25 (≈ 61.2 µM) | < 12.5 | < 12.5 | < 12.5 | < 12.5 | 25 (≈ 61.2 µM) | 25 (≈ 61.2 µM) | 25 (≈ 61.2 µM) | 25 (≈ 61.2 µM) | ~25 (≈ 61.2 µM) | + (Inhibition zone diameter ranging 10-20 mm was given a score of ^+) | + (Inhibition zone diameter ranging 10-20 mm was given a score of ^+) | + (Inhibition zone diameter ranging 10-20 mm was given a score of ^+) | + (Inhibition zone diameter ranging 10-20 mm was given a score of ^+) | ++ (20-30 mm as ^++) |  |  |

Further lines, with some results ahead:

| MIC (H. pylori [1]; [3]) [µg/mL] | MIC50 (H. pylori [1]) [µg/mL] | MIC (H. pylori [1]; [4]) [µg/mL] | MIC (H. pylori [1]; [5]) [µg/mL] | MIC (H. pylori [1]; [6]) [µg/mL] | MIC (H. pylori [1]; [7]) [µg/mL] | MIC (H. pylori [1]; [8]) [µg/mL] | MIC (H. pylori [1]; [9]) [µg/mL] | MIC (H. pylori [1]; [10]) [µg/mL] | MIC (H. pylori [1]; [11]) [µg/mL] | MIC (H. pylori [1]; [12]) [µg/mL] | MIC (H. pylori [1]; [13]) [µg/mL] | SMILES | MIC50 (H. pylori [1]; 72 h) [µg/mL] | Inhibition zone diameter (score) (H. pylori [2]; ATCC standard strain 43504) | Inhibition zone diameter (score) (H. pylori [2]; ATCC standard strain 49503) | Inhibition zone diameter (score) (H. pylori [2]; ATCC standard strain 700392) | Inhibition zone diameter (score) (H. pylori [2]; clinical strain HP001) | Inhibition zone diameter (score) (H. pylori [2]; clinical strain HP002) | zone of inhibition at 100 µg/disc (H. pylori [2]) [mm] | other results |
| --- | --- | --- | --- | --- | --- | --- | --- | --- | --- | --- | --- | --- | --- | --- | --- | --- | --- | --- | --- | --- |
| 0.016 to 0.0625 (≈ 0.0438 to 0.171 µM) | 0.032 (≈ 0.0876 µM) | 0.032 (≈ 0.0876 µM) | 0.032 (≈ 0.0876 µM) | 0.016 (≈ 0.0438 µM) | 0.016 (≈ 0.0438 µM) | 0.016 (≈ 0.0438 µM) | 0.016 (≈ 0.0438 µM) | 0.0625 (≈ 0.171 µM) | 0.032 (≈ 0.0876 µM) | 0.032 (≈ 0.0876 µM) | 0.0625 (≈ 0.171 µM) | CC1(C)S[C@@H]2[C@H](NC(=O)[C@H](N)c3ccc(O)cc3)C(=O)N2[C@H]1C(=O)O [Amoxicillin, reference compound] |  |  |  |  |  |  |  | inhibition zone diameter (H. pylori [2]; clinical strains, 0.16 mg/disc): 10-16 mm; inhibition zone diameter (H. pylori [2]; standard strains, 0.5-1.0 mg/disc): 13-15 mm |
| 6.25 to 25 (≈ 18.4 to 73.7 µM) | 25 (≈ 73.7 µM) | 25 (≈ 73.7 µM) | 25 (≈ 73.7 µM) | 12.5 (≈ 36.8 µM) | 12.5 (≈ 36.8 µM) | 25 (≈ 73.7 µM) | 25 (≈ 73.7 µM) | 50 (≈ 147 µM) | 12.5 (≈ 36.8 µM) | 25 (≈ 73.7 µM) | 50 (≈ 147 µM) | CN(C)CCCOc1cc(O)c2c(=O)cc(-c3ccccc3)oc2c1 [CHN-2, 7-(3-Dimethylamino-propoxy)-5-hydroxy-2-phenyl-chromen-4-one] | ~25 (≈ 73.7 µM) | ++ (20-30 mm as ^++) | ++ (20-30 mm as ^++) | + (Inhibition zone diameter ranging 10-20 mm was given a score of ^+) | ++ (20-30 mm as ^++) | ++ (20-30 mm as ^++) | 20 to 30 | MIC Range (H. pylori [1]; [14]): 12.5 to 50 µg/mL |
| 6.25 to 100 (≈ 16.5 to 264 µM) | 12.5 (≈ 32.9 µM) | 25 (≈ 65.9 µM) | 25 (≈ 65.9 µM) | < 12.5 | < 12.5 | < 12.5 | < 12.5 | 12.5 (≈ 32.9 µM) | 100 (≈ 264 µM) | 25 (≈ 65.9 µM) | 25 (≈ 65.9 µM) | O=c1cc(-c2ccccc2)oc2cc(OCCCN3CCCCC3)cc(O)c12 [CPP-2, 5-Hydroxy-2-phenyl-7-(3-piperidin-1-yl-propoxy)-chromen-4-one] | ~12.5 (≈ 32.9 µM) | + (Inhibition zone diameter ranging 10-20 mm was given a score of ^+) | + (Inhibition zone diameter ranging 10-20 mm was given a score of ^+) | + (Inhibition zone diameter ranging 10-20 mm was given a score of ^+) | + (Inhibition zone diameter ranging 10-20 mm was given a score of ^+) | + (Inhibition zone diameter ranging 10-20 mm was given a score of ^+) |  |  |
